Data taken from publication PMC11003488 (Journal of Enzyme Inhibition and Medicinal Chemistry, 2023).

What was measured:
Type in all cases: cell-based
OVCAR-8 = experiment: NCI-60 SRB growth inhibition, one-dose and five-dose; conditions: Homo sapiens; for inhibition at 10 µM: OVCAR-8, read-out: percent growth inhibition
KM12 = experiment: as above; conditions: Homo sapiens; for GI50: KM12; for inhibition at 10 µM: KM12, read-out: percent growth inhibition
IGROV1 = experiment: as above; conditions: Homo sapiens; for GI50: IGROV-1; for inhibition at 10 µM: IGROV-1, read-out: percent growth inhibition
SNB-75 = experiment: as above; conditions: Homo sapiens; for GI50: SNB-75; for inhibition at 10 µM: SNB-75, read-out: percent growth inhibition
MCF7 = experiment: as above; conditions: Homo sapiens; for GI50: MCF7; for inhibition at 10 µM: MCF7, read-out: percent growth inhibition
U251 = experiment: as above; conditions: Homo sapiens; for GI50: U-251; for inhibition at 10 µM: U-251, read-out: percent growth inhibition
NCI/ADR-RES = experiment: as above; conditions: Homo sapiens
NCI-H226 = experiment: as above; conditions: Homo sapiens; for GI50: NCI-H226; for inhibition at 10 µM: NCI-H226, read-out: percent growth inhibition
MOLT-4 = experiment: as above; conditions: Homo sapiens; for GI50: MOLT-4; for inhibition at 10 µM: MOLT-4, read-out: percent growth inhibition
SN12C = experiment: as above; conditions: Homo sapiens; for inhibition at 10 µM: read-out: percent growth inhibition
MDA-MB-468 = experiment: as above; conditions: Homo sapiens; for GI50: MDA-MB-468; for inhibition at 10 µM: MDA-MB-468, read-out: percent growth inhibition
MDA-MB-435 = experiment: as above; conditions: Homo sapiens; for GI50: MDA-MB-435; for inhibition at 10 µM: MDA-MB-435, read-out: percent growth inhibition
M14 = experiment: as above; conditions: Homo sapiens; for GI50: M14; for inhibition at 10 µM: M14, read-out: percent growth inhibition
OVCAR-4 = experiment: as above; conditions: Homo sapiens; for GI50: OVCAR-4; for inhibition at 10 µM: OVCAR-4, read-out: percent growth inhibition
OVCAR-3 = experiment: as above; conditions: Homo sapiens; for GI50: OVCAR-3; for inhibition at 10 µM: OVCAR-3, read-out: percent growth inhibition
786-0 = experiment: as above; conditions: Homo sapiens; for GI50: 786-0; for inhibition at 10 µM: 786-0, read-out: percent growth inhibition
COLO 205 = experiment: as above; conditions: Homo sapiens; for GI50: COLO 205; for inhibition at 10 µM: COLO 205, read-out: percent growth inhibition
SR = experiment: as above; conditions: Homo sapiens
A498 = experiment: as above; conditions: Homo sapiens; for GI50: A498; for inhibition at 10 µM: A498, read-out: percent growth inhibition
HT29 = experiment: as above; conditions: Homo sapiens; for GI50: HT-29; for inhibition at 10 µM: HT-29, read-out: percent growth inhibition
NCI-H322M = experiment: as above; conditions: Homo sapiens; for inhibition at 10 µM: read-out: percent growth inhibition
NCI-H23 = experiment: as above; conditions: Homo sapiens; for GI50: NCI-H23; for inhibition at 10 µM: NCI-H23, read-out: percent growth inhibition
SK-MEL-2 = experiment: as above; conditions: Homo sapiens; for inhibition at 10 µM: SK-MEL-2, read-out: percent growth inhibition
HS 578 T = experiment: as above; conditions: Homo sapiens; for inhibition at 10 µM: read-out: percent growth inhibition
HCC-2998 = experiment: as above; conditions: Homo sapiens; for GI50: HCC 2998; for inhibition at 10 µM: HCC 2998, read-out: percent growth inhibition
EKVX = experiment: as above; conditions: Homo sapiens; for inhibition at 10 µM: read-out: percent growth inhibition
T-47D = experiment: as above; conditions: Homo sapiens, T47D; for inhibition at 10 µM: read-out: percent growth inhibition
LOX IMVI = experiment: as above; conditions: Homo sapiens; for inhibition at 10 µM: read-out: percent growth inhibition
CCRF-CEM = experiment: as above; conditions: Homo sapiens; for inhibition at 10 µM: read-out: percent growth inhibition
MALME-3M = experiment: as above; conditions: Homo sapiens; for inhibition at 10 µM: read-out: percent growth inhibition
ACHN = experiment: as above; conditions: Homo sapiens; for inhibition at 10 µM: read-out: percent growth inhibition
SK-MEL-28 = experiment: as above; conditions: Homo sapiens; for GI50: SK-MEL-28; for inhibition at 10 µM: SK-MEL-28, read-out: percent growth inhibition
PC-3 = experiment: as above; conditions: Homo sapiens; for GI50: PC-3; for inhibition at 10 µM: PC-3, read-out: percent growth inhibition
RXF 393 = experiment: as above; conditions: Homo sapiens; for GI50: RXF 393; for inhibition at 10 µM: RXF 393, read-out: percent growth inhibition
UACC-257 = experiment: as above; conditions: Homo sapiens; for GI50: UACC-257; for inhibition at 10 µM: UACC-257, read-out: percent growth inhibition
SNB-19 = experiment: as above; conditions: Homo sapiens; for GI50: SNB-19; for inhibition at 10 µM: SNB-19, read-out: percent growth inhibition
RPMI-8226 = experiment: as above; conditions: Homo sapiens; for GI50: RPMI-8226; for inhibition at 10 µM: RPMI-8226, read-out: percent growth inhibition
NCI-H522 = experiment: as above; conditions: Homo sapiens; for GI50: NCI-H522; for inhibition at 10 µM: NCI-H522, read-out: percent growth inhibition
HL-60(TB) = experiment: cells; conditions: Homo sapiens; for GI50: HL-60; for inhibition at 10 µM: HL-60, read-out: percent growth inhibition
K-562 = experiment: NCI-60 SRB growth inhibition, one-dose and five-dose; conditions: Homo sapiens; for GI50: K562; for inhibition at 10 µM: K562, read-out: percent growth inhibition
CAKI-1 = experiment: as above; conditions: Homo sapiens; for GI50: CAKI-1; for inhibition at 10 µM: CAKI-1, read-out: percent growth inhibition
HCT-15 = experiment: as above; conditions: Homo sapiens; for GI50: HCT-15; for inhibition at 10 µM: HCT-15, read-out: percent growth inhibition
SF-268 = experiment: as above; conditions: Homo sapiens; for GI50: SF-268; for inhibition at 10 µM: SF-268, read-out: percent growth inhibition
[1] = read-out: percent growth inhibition

## Cc1ccc(CNc2cccc(C(=O)/C=C/c3cccnc3)c2)cc1 [Compound 5a, (E)-1–(3-((4-methylbenzyl)amino)phenyl)-3-(pyridin-3-yl)prop-2-en-1-one]
OVCAR-8; OVCAR-8
  GI50: 13.1 µM
OVCAR-8
  inhibition at 10 µM: 88.3%
KM12
  GI50: 8.36 µM
  inhibition at 10 µM: 155%
IGROV1
  GI50: 13.6 µM
  inhibition at 10 µM: 44.5%
SNB-75
  GI50: 13.1 µM
  inhibition at 10 µM: 46.6%
MCF7
  GI50: 2.79 µM
  inhibition at 10 µM: 148%
U251
  GI50: 9.87 µM
  inhibition at 10 µM: 193%
NCI/ADR-RES
  GI50: 7.54 µM
NCI-H226
  GI50: 11.9 µM
  inhibition at 10 µM: 37.9%
MOLT-4
  GI50: 3.54 µM
  inhibition at 10 µM: 57.3%
SN12C
  GI50: 12.6 µM
  inhibition at 10 µM: 118%
MDA-MB-468
  GI50: 6.3 µM
  inhibition at 10 µM: 153%
MDA-MB-435
  GI50: 3.04 µM
  inhibition at 10 µM: 92%
M14
  GI50: 13.1 µM
  inhibition at 10 µM: 92.7%
OVCAR-4
  GI50: 6.81 µM
  inhibition at 10 µM: 63.8%
OVCAR-3
  GI50: 7.19 µM
  inhibition at 10 µM: 84.8%
786-0
  GI50: 15.5 µM
  inhibition at 10 µM: 126%
COLO 205
  GI50: 17.1 µM
  inhibition at 10 µM: 36.9%
SR
  GI50: 2.82 µM
SR; [1]
  inhibition at 10 µM: 85.6%
A498
  GI50: 14.4 µM
  inhibition at 10 µM: 14.1%
HT29
  GI50: 14.1 µM
  inhibition at 10 µM: 159%
NCI-H322M
  GI50: 15.7 µM
  inhibition at 10 µM: 19.6%
NCI-H23
  GI50: 12.2 µM
  inhibition at 10 µM: 47.9%
SK-MEL-2; SK-MEL-2
  GI50: 14.3 µM
SK-MEL-2
  inhibition at 10 µM: 35.9%
HS 578 T
  GI50: 14.6 µM
  inhibition at 10 µM: 69.2%
HCC-2998
  GI50: 14.1 µM
  inhibition at 10 µM: 52.8%
EKVX
  GI50: 12.8 µM
  inhibition at 10 µM: 52.3%
T-47D
  GI50: 9.84 µM
  inhibition at 10 µM: 105%
LOX IMVI
  GI50: 1.88 µM
  inhibition at 10 µM: 195%
CCRF-CEM
  GI50: 2.58 µM
  inhibition at 10 µM: 53.1%
MALME-3M
  GI50: 13.6 µM
  inhibition at 10 µM: 127%
ACHN
  GI50: 14 µM
  inhibition at 10 µM: 130%
SK-MEL-28
  GI50: 14.7 µM
  inhibition at 10 µM: 71.6%
PC-3
  GI50: 14.2 µM
  inhibition at 10 µM: 84.8%
RXF 393
  GI50: 12.3 µM
  inhibition at 10 µM: 67.9%
UACC-257
  GI50: 14.4 µM
  inhibition at 10 µM: 39.6%
SNB-19
  GI50: 14 µM
  inhibition at 10 µM: 34.9%
RPMI-8226
  GI50: 1.76 µM
  inhibition at 10 µM: 98.6%
NCI-H522
  GI50: 13.8 µM
  inhibition at 10 µM: 134%
HL-60(TB)
  GI50: 6.25 µM
  inhibition at 10 µM: 54.6%
K-562
  GI50: 3.09 µM
  inhibition at 10 µM: 93.6%
CAKI-1
  GI50: 11.7 µM
  inhibition at 10 µM: 36.7%
HCT-15
  GI50: 4.15 µM
  inhibition at 10 µM: 156%
SF-268
  GI50: 12.8 µM
  inhibition at 10 µM: 38.2%

## CC(=O)Nc1ccc(CNc2cccc(C(=O)/C=C/c3cccnc3)c2)cc1 [Compound 5b, (E)-N-(4-(((3–(3-(pyridin-3-yl)acryloyl)phenyl)amino)methyl)phenyl)acetamide]
OVCAR-8
  inhibition at 10 µM: 97.1%
KM12
  GI50: 2.25 µM
  inhibition at 10 µM: 162%
IGROV1
  GI50: 2.3 µM
  inhibition at 10 µM: 123%
SNB-75
  GI50: 8.99 µM
  inhibition at 10 µM: 31.8%
MCF7
  GI50: 1.38 µM
  inhibition at 10 µM: 178%
U251
  GI50: 1.9 µM
  inhibition at 10 µM: 166%
NCI/ADR-RES
  GI50: 3.12 µM
NCI/ADR-RES; [1]
  inhibition at 10 µM: 91.1%
NCI-H226
  GI50: 2.76 µM
  inhibition at 10 µM: 116%
MOLT-4
  GI50: 2.88 µM
  inhibition at 10 µM: 128%
SN12C
  GI50: 2.01 µM
  inhibition at 10 µM: 124%
MDA-MB-468
  GI50: 1.67 µM
  inhibition at 10 µM: 175%
MDA-MB-435
  GI50: 2.28 µM
  inhibition at 10 µM: 124%
M14
  GI50: 2.91 µM
  inhibition at 10 µM: 141%
OVCAR-4
  GI50: 8.63 µM
  inhibition at 10 µM: 88.5%
OVCAR-3
  GI50: 2.85 µM
  inhibition at 10 µM: 190%
786-0
  GI50: 3.43 µM
  inhibition at 10 µM: 160%
COLO 205
  GI50: 10.9 µM
  inhibition at 10 µM: 156%
SR
  GI50: 2.01 µM
A498
  GI50: 13.4 µM
  inhibition at 10 µM: 17.5%
HT29
  GI50: 2.19 µM
  inhibition at 10 µM: 182%
NCI-H322M
  GI50: 13.7 µM
  inhibition at 10 µM: 29.6%
NCI-H23
  GI50: 3.22 µM
  inhibition at 10 µM: 148%
SK-MEL-2
  inhibition at 10 µM: 52.7%
HS 578 T
  GI50: 2.57 µM
  inhibition at 10 µM: 88.3%
HCC-2998
  GI50: 1.82 µM
  inhibition at 10 µM: 195%
EKVX
  GI50: 4.87 µM
  inhibition at 10 µM: 94.2%
T-47D
  GI50: 4.14 µM
  inhibition at 10 µM: 82%
LOX IMVI
  GI50: 1.65 µM
  inhibition at 10 µM: 199%
CCRF-CEM
  GI50: 2.8 µM
  inhibition at 10 µM: 141%
MALME-3M
  GI50: 2.19 µM
  inhibition at 10 µM: 132%
ACHN
  GI50: 1.9 µM
  inhibition at 10 µM: 165%
SK-MEL-28
  GI50: 1.96 µM
  inhibition at 10 µM: 166%
PC-3
  GI50: 3.05 µM
  inhibition at 10 µM: 98.8%
RXF 393
  GI50: 3.09 µM
  inhibition at 10 µM: 194%
UACC-257
  GI50: 9.35 µM
  inhibition at 10 µM: 120%
SNB-19
  GI50: 3.61 µM
  inhibition at 10 µM: 99.1%
RPMI-8226
  GI50: 1.92 µM
  inhibition at 10 µM: 125%
NCI-H522
  GI50: 1.67 µM
  inhibition at 10 µM: 165%
HL-60(TB)
  GI50: 2.78 µM
  inhibition at 10 µM: 144%
K-562
  GI50: 2.52 µM
  inhibition at 10 µM: 99.8%
CAKI-1
  GI50: 12.2 µM
  inhibition at 10 µM: 95.9%
HCT-15
  GI50: 2.05 µM
  inhibition at 10 µM: 138%
SF-268
  GI50: 13.6 µM
  inhibition at 10 µM: 88.6%
